Results published in article PMC3038857, “Using Nuclear Receptor Activity to Stratify Hepatocarcinogens” (PLoS ONE, 2011).
Where two headings read alike, the source gives them in different places.

Assays:
[1] = system: Rat Liver; settings: ref ToxRefDB, cited from earlier work
[2] = system: Rat Liver; settings: ref ToxRefDB, cited from earlier work; remark: listed apart in the source
[3] = system: Rat Liver; settings: ref ToxRefDB, cited from earlier work; remark: listed apart in the source
[4] = system: Mouse Liver; settings: liver, ref ToxRefDB, cited from earlier work
[5] = molecular target: T1, PXR (NR1I2) (Homo sapiens, UniProt O75469); experiment: ATG_PXRE_CIS: Factorial reporter gene assay (HepG2); format: cell-based; set-up: endogenous in cells; host or cells: HepG2
T1 sequence (O75469 1-434): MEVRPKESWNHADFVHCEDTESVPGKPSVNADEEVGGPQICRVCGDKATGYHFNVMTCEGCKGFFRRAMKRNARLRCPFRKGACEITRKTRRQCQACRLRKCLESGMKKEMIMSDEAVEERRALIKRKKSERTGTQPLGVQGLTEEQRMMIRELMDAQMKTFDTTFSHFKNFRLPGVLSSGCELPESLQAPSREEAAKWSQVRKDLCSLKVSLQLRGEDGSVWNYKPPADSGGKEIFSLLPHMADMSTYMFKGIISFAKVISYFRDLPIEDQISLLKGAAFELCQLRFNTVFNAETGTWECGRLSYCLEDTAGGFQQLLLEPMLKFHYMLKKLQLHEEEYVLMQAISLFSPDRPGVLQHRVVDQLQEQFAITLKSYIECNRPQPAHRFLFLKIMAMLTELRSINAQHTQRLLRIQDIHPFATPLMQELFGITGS
Procedure: A multiple reporter transcription unit (MRTU) library consisting of 48 transcription factor binding sites was transfected into the HepG2 human liver hepatoma cell line. In addition to the cis-acting reporter genes (CIS), a modification of the approach was used to generate a trans-system (TRANS) with a mammalian one-hybrid assay consisting of an additional 25 MRTU library reporting the activity of nuclear receptor super-family members. […] These assays were performed by Attagene Inc. (Morrisville NC) under contract to EPA.
In addition to the cis-acting reporter genes (CIS), a modification of the approach was used to generate a trans-system (TRANS) with a mammalian one-hybrid assay consisting of an additional 25 MRTU library reporting the activity of nuclear receptor super-family members. […] Chemicals were then tested in the CIS and TRANS assays at seven concentrations starting at the MTC and followed by three-fold serial dilutions. These assays were performed by Attagene Inc. (Morrisville NC) under contract to EPA. Detailed description of the methods, data and analysis methods for this dataset will be presented in a separate publication.

[6] = system: CYP2B6; experiment: CLZD_CYP2B6: Change in expression of CYP2B6 (primary human hepatocytes); format: cell-based; settings: 24 hr
Procedure: This is a collection of multiplexed gene expression assays focused on Phase I and II xenobiotic metabolizing enzymes and transporters. Human primary cell cultures were treated with chemicals at 5 concentrations (0.004-40 [drawing 42] M) for 6, 24 and 48 hr. Concentration- and time-response profiles of chemicals were measured by the expression of key nuclear receptor target genes, activities of CYP1A enzymes (EROD), and cell morphology. Fourteen gene targets were monitored by quantitative nuclease protection assay including: six representative cytochrome P-450 genes, four hepatic transporters, three Phase II conjugating enzymes, and one endogenous metabolism gene involved in cholesterol synthesis. The target genes associated with nuclear receptor pathways are as follows: [drawing 43] and [drawing 44] with [drawing 45]; [drawing 46] , [drawing 47] , [drawing 48] , [drawing 49] , [drawing 50] and [drawing 51] with [drawing 52]; [drawing 53] , [drawing 54] , [drawing 55] and [drawing 56] with [drawing 57]; [drawing 58] with [drawing 59]; and [drawing 60] with [drawing 61] . Assays were run in primary human hepatocyte cultures by CellzDirect Invitrogen Inc. (Durham, NC), in collaboration with EPA.
Multiplexed Gene Expression in Human Primary Hepatocytes: This is a collection of multiplexed gene expression assays focused on Phase I and II metabolic enzymes and transporters. […] Fourteen gene targets were monitored by quantitative nuclease protection assay: six representative cytochrome P450 genes, four hepatic transporters, three Phase II conjugating enzymes, and one endogenous metabolism gene involved in cholesterol synthesis. Cells were exposed at 5 concentrations (0.004-40 µM) for 6, 24 or 48 hr. Gene targets are sentinels for five nuclear receptor signaling pathways: AhR, CAR, PXR, FXR, and PPARα. All gene are associated with nuclear receptor pathways: CYP1A1 and CYP1A2 with AHR; ABCB1, ABCG2, CYP2B6, CYP2C9, CYP2C19 and UGT1A1 with CAR; CYP3A4, GSTA2, SLCO1B1 and SULT2A1 with PXR; HMGCS2 with PPARA; and ABCB11 with FXR. […] Detailed description of the methods, data and analysis methods for this dataset will be presented in a separate publication.

[7] = rat chronic study, liver, neoplastic lesion, coded 6 / 0, code not explained in the table
[8] = rat chronic study, liver, preneoplastic lesion, coded 6 / 0, code not explained in the table
[9] = rat chronic study, liver, any lesion, coded 6 / 0, code not explained in the table
[10] = mouse chronic study, any lesion, coded 6 / Inf, code not explained in the table
[11] = rat chronic study, liver, coded 6 / 0, code not explained in table
[12] = mouse chronic study, coded 6 / Inf, code not explained in table

Row | SMILES | CHR_Rat_Liver_3_NeoplasticLesion [1, 7] | CHR_Rat_Liver_2_PreneoplasticLesion [2, 8] | CHR_Rat_Liver_1_AnyLesion [3, 9] | CHR_Rat_Liver_3_NeoplasticLesion [1, 11] | CHR_Rat_Liver_2_PreneoplasticLesion [2, 11] | CHR_Rat_Liver_1_AnyLesion [3, 11] | further results
1 | O=C(O)COc1ccc(Cl)cc1Cl [Dataset S3 row 2] | 0 | 0 | 6 |  |  |  | 
2 | O=C(O)CCCOc1ccc(Cl)cc1Cl [Dataset S3 row 3] | 0 | 0 | 6 |  |  |  | CHR_Mouse_Liver_1_AnyLesion [4, 10]: 6
3 | C/C(=N\C#N)N(C)Cc1ccc(Cl)nc1 [Dataset S3 row 11] | 0 | 0 | 6 |  |  |  | CHR_Mouse_Liver_1_AnyLesion [4, 10]: 6
4 | CCOCN(C(=O)CCl)c1c(C)cccc1CC [Dataset S3 row 12] | 6 | 6 | 6 |  |  |  | 
5 | CSC(=O)c1cccc2nnsc12 [Dataset S3 row 13] | 0 | 0 | 6 |  |  |  | CHR_Mouse_Liver_1_AnyLesion [4, 10]: 6
6 | CCc1cccc(CC)c1N(COC)C(=O)CCl [Dataset S3 row 15] | 0 | 0 | 6 |  |  |  | 
7 | CNC(=O)ON=CC(C)(C)SC [Dataset S3 row 16] | 0 | 0 | 0 |  |  |  | 
8 | CCNc1nc(NC(C)C)nc(SC)n1 [Dataset S3 row 17] | 6 | 6 | 6 |  |  |  | 
9 | Clc1nc(Cl)nc(Nc2ccccc2Cl)n1 [Dataset S3 row 19] | 0 | 0 | 0 |  |  |  | 
10 | COC(=O)NS(=O)(=O)c1ccc(N)cc1 [Dataset S3 row 20] | 0 | 0 | 0 |  |  |  | CHR_Mouse_Liver_1_AnyLesion [4, 10]: 6
11 | CCNc1nc(Cl)nc(NC(C)C)n1 [Dataset S3 row 21] | 0 | 0 | 0 |  |  |  | 
12 | COC=C(C(=O)OC)c1ccccc1Oc1cc(Oc2ccccc2C#N)ncn1 [Dataset S3 row 24] | 0 | 6 | 6 |  |  |  | 
13 | CNC(=O)Oc1cccc2c1OC(C)(C)O2 [Dataset S3 row 25] | 0 | 0 | 0 |  |  |  | 
14 | FC(F)C(F)(F)OCC(Cn1cncn1)c1ccc(Cl)cc1Cl (stereo not shown) [chemical 292] |  |  |  | 0 | 6 | 6 | 
15 | c1ccc2[nH]c(-c3cscn3)nc2c1 [chemical 294] |  |  |  | 0 | 0 | 6 | 
16 | N#C/N=C1\SCCN1Cc1ccc(Cl)nc1 [chemical 295] |  |  |  | 0 | 0 | 6 | CHR_Mouse_Liver_1_AnyLesion [4, 12]: 6
17 | CN(C)C(=S)SSC(=S)N(C)C [chemical 302] |  |  |  | 0 | 6 | 6 | 
18 | CCON=C(CC)C1=C(O)CC(c2c(C)cc(C)cc2C)CC1=O (stereo not shown) [chemical 303] |  |  |  | 0 | 6 | 6 | 

Row | SMILES | CHR_Rat_Liver_3_NeoplasticLesion [1, 7] | CHR_Rat_Liver_2_PreneoplasticLesion [2, 8] | CHR_Rat_Liver_1_AnyLesion [3, 9] | CHR_Rat_Liver_3_NeoplasticLesion [1, 11] | CHR_Rat_Liver_2_PreneoplasticLesion [2, 11] | CHR_Rat_Liver_1_AnyLesion [3, 11] | further results
19 | COC(=O)c1ccccc1S(=O)(=O)NC(=O)N(C)c1nc(C)nc(OC)n1 [chemical 308] |  |  |  | 0 | 0 | 0 | 
20 | Oc1cc(Cl)ccc1Oc1ccc(Cl)cc1Cl [chemical 312] |  |  |  | 0 | 0 | 6 | 
21 | CO/N=C(/C(=O)OC)c1ccccc1CON=C(C)c1cccc(C(F)(F)F)c1 [chemical 313] |  |  |  | 0 | 0 | 0 | CHR_Mouse_Liver_1_AnyLesion [4, 12]: 6
22 | COc1cc(OC)nc(NC(=O)[N-]S(=O)(=O)c2ncccc2OCC(F)(F)F)n1.[Na+] [chemical 314] |  |  |  | 0 | 0 | 0 | 
23 | CCCN(CCC)c1c([N+](=O)[O-])cc(C(F)(F)F)cc1[N+](=O)[O-] [chemical 316] |  |  |  | 0 | 0 | 0 | 
24 | CC1(C)CCC(=Cc2ccc(Cl)cc2)C1(O)Cn1cncn1 (stereo not shown) [chemical 318] |  |  |  | 0 | 0 | 6 | CHR_Mouse_Liver_1_AnyLesion [4, 12]: 6
25 | CCC(C)(NC(=O)c1cc(Cl)c(C)c(Cl)c1)C(=O)CCl (stereo not shown) [chemical 320] |  |  |  | 0 | 0 | 0 | 
26 | CNC(=O)ON=C(SC)C(=O)N(C)C [r231] |  |  |  |  |  |  | CHR_Rat_Liver_3_NeoplasticLesion ([1]; rat, chronic study): 0; CHR_Rat_Liver_2_PreneoplasticLesion ([2]; rat, chronic study): 0; ATG_PXRE_CIS ([5]; HepG2): 4.481; CHR_Rat_Liver_1_AnyLesion ([3]; rat, chronic study): 0
27 | CCCOC(=O)NCCCN(C)C.Cl [r257] |  |  |  |  |  |  | CHR_Rat_Liver_3_NeoplasticLesion ([1]; rat, chronic study): 0; CHR_Rat_Liver_2_PreneoplasticLesion ([2]; rat, chronic study): 0; CHR_Rat_Liver_1_AnyLesion ([3]; rat, chronic study): 0
28 | CCC(=O)Nc1ccc(Cl)c(Cl)c1 [r258] |  |  |  |  |  |  | CHR_Rat_Liver_3_NeoplasticLesion ([1]; rat, chronic study): 0; CHR_Rat_Liver_2_PreneoplasticLesion ([2]; rat, chronic study): 6; ATG_PXRE_CIS ([5]; HepG2): 4.337; CHR_Rat_Liver_1_AnyLesion ([3]; rat, chronic study): 6
29 | O=C(O)c1c(Cl)ccc2cc(Cl)cnc12 [r276] |  |  |  |  |  |  | CHR_Rat_Liver_3_NeoplasticLesion ([1]; chronic study, rat liver): 0; CHR_Rat_Liver_2_PreneoplasticLesion ([2]; chronic study, rat liver): 0; CHR_Rat_Liver_1_AnyLesion ([3]; chronic study, rat liver): 0
30 | CCS(=O)(=O)c1cccnc1S(=O)(=O)NC(=O)Nc1nc(OC)cc(OC)n1 [r281] |  |  |  |  |  |  | CHR_Rat_Liver_3_NeoplasticLesion ([1]; chronic study, rat liver): 0; CHR_Rat_Liver_2_PreneoplasticLesion ([2]; chronic study, rat liver): 6; CHR_Rat_Liver_1_AnyLesion ([3]; chronic study, rat liver): 6
31 | CNC(=O)N(C)c1nnc(C(C)(C)C)s1 [r293] |  |  |  |  |  |  | ATG_PXRE_CIS ([5]; HepG2 reporter): 4.357
32 | COC(=O)c1ccc(CNS(C)(=O)=O)cc1S(=O)(=O)NC(=O)Nc1nc(OC)cc(OC)n1 [row 194] |  |  |  |  |  |  | CHR_Rat_Liver_3_NeoplasticLesion ([1]; chronic rat study, liver): 0; CHR_Rat_Liver_2_PreneoplasticLesion ([2]; chronic rat study, liver): 0; CHR_Rat_Liver_1_AnyLesion ([3]; chronic rat study, liver): 0; CHR_Mouse_Liver_1_AnyLesion ([4]; chronic mouse study): 6
33 | CNC(=O)ON=C(C)SC [row 200] |  |  |  |  |  |  | CHR_Rat_Liver_3_NeoplasticLesion ([1]; chronic rat study, liver): 0; CHR_Rat_Liver_2_PreneoplasticLesion ([2]; chronic rat study, liver): 0; CHR_Rat_Liver_1_AnyLesion ([3]; chronic rat study, liver): 0
34 | COCCO [row 203] |  |  |  |  |  |  | ATG_PXRE_CIS ([5]; HepG2): 4.602
35 | CSc1nnc(C(C)(C)C)c(=O)n1N [row 209] |  |  |  |  |  |  | CHR_Rat_Liver_3_NeoplasticLesion ([1]; chronic rat study, liver): 0; CHR_Rat_Liver_2_PreneoplasticLesion ([2]; chronic rat study, liver): 0; CLZD_CYP2B6_24 [6]: 5.115; CHR_Rat_Liver_1_AnyLesion ([3]; chronic rat study, liver): 0
